Laboratory results: US20180027748A1, “METHOD FOR PRODUCING METABOLITE CAPABLE OF IMPROVING DROUGHT TOLERANCE USING MICROORGANISM, AND METHOD FOR IMPROVING DROUGHT TOLERANCE OF PLANT USING SAID METABOLITE” (priority 2015, published 2018)

Tested on: white radish seeds
Assay: Drought tolerance test on white radish after removal of aluminum foil
Format: in vivo
Details: foil removed, samples A/B/C 10/100/300 μg/mL·agar extract, D 1 μg/mL·agar ABA, dH2O control G 27%
Method: Samples A, B, and C were prepared containing, respectively, 10, 100, and 300 μg/mL·agar of the drought tolerance improving metabolite producing bacterium extract obtained by the method described above. The samples were each dispensed into 10 test tubes.
ABA standard samples D, E, and F were prepared containing, respectively, 1, 10, and 20 μg/mL·agar of abscisic acid (ABA) as a standard. The samples were each dispensed into 10 test tubes.
After a culture medium was prepared in each sample, one white radish seed was placed in each test tube. After each test tube was capped with aluminum foil, each seed was germinated in the dark.
Samples A to C, D and G prepared in test method 1 described above were subjected to a drought tolerance test after the aluminum foil was removed from each test tube.

`CC1=CC(=O)CC(C)(C)C1(O)/C=C/C(C)=C\C(=O)O` (stereo not shown) [Sample D, abscisic acid] was tested. Which “percentage of sound individuals (drought tolerance level)” value did it give?
The value was 66%.
